# Assays:
# TSC1−/− MEFs = experiment: ER stress parameters (western blot, XBP-1 rt-PCR) in TSC1-deficient MEFs; format: cell-based, mouse; details: for splicing of XBP-1 mRNA (UPR activation): thapsigargin 0.05 nM, tunicamycin 0.002 ug/ml, compared with controls
# Protocol: (§1) All of the mouse embryonic fibroblast (MEF) cell lines (TSC1+/+, TSC1−/−, TSC2+/+, TSC2−/−) were cultured in medium containing DMEM-H+10% fetal bovine serum (FBS)+1% PS (penicillin-streptomycin complex) in 175 cm^2 cell culture flasks using standard methods. Upon reaching 90% confluency, cells were split into 10 cm dishes at 30-40% confluency and grown again in DMEM-H+10% FBS+1% PS to about 60% confluency for experiments.
# […] As a vehicle control, DMSO was not present at a sufficiently high concentration to act as a chemical chaperone. […] At the end of the incubation, the media was removed and dishes were immediately frozen in liquid nitrogen and stored at −80° C. untile further use.
# (§2) Protein extracts were prepared with a lysis buffer containing 25 mM Tris-HCl (pH 7.4), 2 mM Na3VO4, 10 mM NaF, 10 mM Na4P2O7, 1 mM EGTA, 1 mM EDTA, 1% NP-40, 5 ug/ml leupeptin, 5 ug/ml aprotinin, 10 nM okadaic acid, and 1 mM phenylmethylsulfonyl fluoride (PMSF). Immunoprecipitations and immunoblotting experiments were performed with 200 and 75 μg total protein, respectively without any freeze-thaw cycles from individual aliquots.
# (§3) Protein concentrations were normalized and the desired amounts were aliquotted into tubes. Laemelli buffer was added to a 1× final concentration and the samples were boiled for five minutes. After boiling, the samples were incubated at room temperature for 20 minutes. The boiled, cooled lysates were centrifuged at 14,000 rpm and subject to SDS-PAGE. Proteins were transferred to PVDF membranes for western blotting.
# (§4) Membrane blotting was performed using standard techniques and reagents. Appropriate modification depending on the antibodies used and other considerations, is within the ability of those skilled in the art. Membranes were blocked in 10% blocking reagent for 1 hour prior to exposure to primary antibody in tris-buffered saline-tween (TBST), pH 7.4, overnight at 4° C. Following overnight incubation, membranes were washed in TBST for 3×20 minutes and placed into secondary antibody for 1 hour. Subsequently the membrane was washed 3×20 minutes in TBST. After the washing period, the membranes were developed by using a chemiluminescence kit and the bands were visualized using a phospho imager system (VersaDoc Imaging System, Model 3000).
# (§5) Phosphorylation state of the ER stress markers PERK and s6K1 were analyzed in both wild type (TSC2+/+ and TSC1+/+) and TSC-deficient (TSC2−/− and TSC1−/−) MEFs. Cells were cultured and treated with DMSO (vehicle control) or rapamycin as discussed above. Rapamycin inhibits signaling through the mTOR pathway which is required for ER stress response. The DMSO was present at too low of a concentration to act as a chemical chaperone. Cells were harvested and protein and RNA were isolated. Protein samples were resolved by SDS-PAGE and proteins were transferred to PVDF membrane for western blotting as described above. RNA was subjected to rt-PCR using probes designed to mouse XBP-1 to detect splicing.
# (§6) Phosphorylation state of the ER stress markers PERK, eIF2α cJun, JNK and s6K1, and the level of spliced XBP-1 were analyzed in both wild type and TSC-deficient MEFs. Cells were treated with PBS (vehicle control) or PBA (chemical chaperone) as discussed above. Cells were harvested, samples were resolved by SDS-PAGE, proteins were transferred to PVDF membrane, and western blots were performed as described above.
# TSC2−/− MEFs = experiment: ER stress parameters (western blot, XBP-1 rt-PCR) in TSC2-deficient MEFs; format: cell-based, mouse; details: for splicing of XBP-1 mRNA (UPR activation): thapsigargin 0.05 nM, tunicamycin 0.002 ug/ml, compared with controls
# Protocol: as §1
# At the start of the experiment, cells were placed in fresh media and treated with 200 nM Rapamycin or 10 mM […], and DMSO or PBS as respective vehicle controls (PBA was dissolved in PBS, and rapamycin was dissolved in DMSO), for 19 hours. As a vehicle control, DMSO was not present at a sufficiently high concentration to act as a chemical chaperone. Cells were then washed 3 times with serum-free DMEM-H+1% PS and incubated for 5 hours in serum free DMEM-H+1% PS in the presence of rapamycin or PBA and their appropriate vehicle controls. At the end of the incubation, the media was removed and dishes were immediately frozen in liquid nitrogen and stored at −80° C. untile further use.
# as §2, §3, §4, §5, §6
# [1] = test system: c-Jun Amino Terminal Kinase-1 (JNK-1); experiment: c-Jun Amino Terminal Kinase (JNK) kinase assay on immunoprecipitates from TSC2-deficient cells; format: cell-based, mouse; details: PBA 10 mM
# Protocol: Cell lysates were prepared as above, and subsequently incubated with primary antibody and Sepharose beads, either Protein A Sepharose or Protein G Sepharose depending on the antibody. The samples were incubated on a rotating apparatus overnight at 4° C. Subsequently, beads were centrifuged at 14,000 rpm and washed 3 times with cold lysis buffer. If immunoprecipitates were to be subjected to SDS-PAGE, they were boiled in 2× Laemmli buffer for 5 minutes prior to loading.
# Following immunoprecipitation the beads were washed 3 times with lysis buffer as described above, and two times with JNK kinase assay buffer (25 mM HEPES (pH: 7.4), 20 mM MgCl2, 20 mM β-glycerophosphate, 0.5 mM EGTA, 0.5 mM NaF, 0.5 mM NaOrthoVanadate, 1 mM PMSF) for equilibration. After washing with kinase buffer, the beads were incubated in 17 μl kinase buffer, 1 μl [^32P]γ-ATP and 4 μg of c-Jun fusion protein at 30° C. for 20 minutes. The reaction was terminated by the addition of Laemmli buffer. The samples were resolved by SDS-page and transferred to a PVDF membrane as described above. Phosphorylated c-Jun bands were visualized prior to western blotting.
# Phosphorylation state of the ER stress markers PERK, eIF2α cJun, JNK and s6K1, and the level of spliced XBP-1 were analyzed in both wild type and TSC-deficient MEFs. Cells were treated with PBS (vehicle control) or PBA (chemical chaperone) as discussed above. […]
# IRS-1 [2] = experiment: Degradation pattern of IRS-1 after cycloheximide addition in TSC-1 deficient cells; format: cell-based, mouse; details: pretreatment with PBA (an hour without PBA)
# Description: (§7) It has been previously shown that when ER stress is induced acutely, IRS-1 is highly phosphorylated at serine 307 residue, and insulin induced tyrosine phosphorylation is blocked. […] Eight hour stimulation with thapsigargin in the presence of MG132 leads to ubiquitination of IRS-1. […] As mentioned above, IRS-1 degradation was increased in both TSC1- and TSC2-deficient cells. […] IRS-1 protein levels became totally undetectable in an hour after cycloheximide addition, whereas pretreatment with PBA extends this period up to 4 hours.
# TSC2−/− cells = experiment: Apoptosis (Cell Death Elisa, caspase 3 or PARP cleavage) in TSC2−/− cells; format: cell-based, mouse
# TSC-1−/− cells = experiment: Insulin signaling (IRS-1, IRS-2, Akt western blot) in TSC-1−/− cells; format: cell-based, mouse; details: PBA treatment
# Protocol: (§8) For insulin signaling experiments, cells were treated exactly the same way as for analysis of ER stress parameters. At the end of a 5-hour starvation period, cells were either stimulated with PBS or with 100 nM insulin for 5 minutes for analysis of ISR phosphorylation analysis, or 15 minutes for Akt phosphorylation analysis. Samples were harvested and subjected to western blotting as described above. Blots were probed with primary antibodies targeted to total and phosphorylated insulin receptor substrate (IRS)-1, and -2, and Akt, a downstream target in the insulin signaling pathway.
# TSC-2−/− cells = experiment: Insulin signaling (IRS-1, IRS-2, Akt western blot) in TSC-2−/− cells; format: cell-based, mouse; details: PBA treatment
# Protocol: as §8
# TSC1−/− cells = experiment: Apoptosis (Cell Death Elisa, caspase 3 or PARP cleavage) in TSC1−/− cells; format: cell-based, mouse
# Protocol: (§9) ER stress can cause apoptosis. […] Wild-type and TSC1−/− cells were plated in 96 well plates in DMEM-H+10% FBS+1% PS at 40-50% confluence. Upon reaching about 80% confluence, the cells were washed with DMEM-H without FBS and treated with the ER stress inducer thapsigargin (10 nM) or DMSO (vehicle control) for 6 hours in serum-free DMEM-H+1% PS. Apoptosis was analyzed by using Cell Death Elisa Kit using the manufacturer's instructions, or by detection of caspase 3 or PARP cleavage.
# ER stress = details: western blot after treatment of the animal with the compound; cited from earlier work
# IRS-1 [3] = experiment: IRS-1 degradation and ubiquitination during ER stress induced by thapsigargin or tunicamycin; format: cell-based; details: for degradation of IRS-1: prolonged exposure to ER stress
# Description: as §7
# Wild-type control cells = experiment: Apoptosis in wild-type control cells; format: cell-based, mouse; details: thapsigargin, same time period (6 hours)
# Protocol: as §9
# [4] = test system: kidney adenomas and liver hemangiomas of TSC-2+/− mice; format: in vivo; details: thapsigargin 1 mg/kg
# Protocol: To address this, we have used around ˜1 year old TSC-2+/−mice for thapsigargin (1 mg/kg) or vehicle treatment. After 7 days of thapsigargin administration we have analyzed the apoptosis with tunnel assay in the kidney adenomas. […] Increased tunnel positivity in liver hemangiomas after thapsigargin treatment was also observed, but lack of liver hemangiomas in vehicle treated group, limits the conclusions that can be drawn from the study.
# wild type control cells = experiment: UPR activation by low doses of ER stress inducers in wild type control cells; format: cell-based, mouse; details: thapsigargin 0.05 nM, tunicamycin 0.002 ug/ml
# Protocol: as §1
# TSC-deficient cells and their corresponding control cells were exposed to extremely low doses of thapsigargin (0.05 nM) and tunicamycin (0.002 ug/ml) at which the UPR is not activated in wild type control cells. TSC1- and TSC2-deficient cells responded to the ER stress inducers by activating the UPR as determined by increased splicing of XBP-1 mRNA when compared with their controls.
# [5] = TSC1-deficient MEFs, western blot, rapamycin 200 nM, 12 hours, PBA 10 mM
# [6] = TSC2-deficient MEFs, western blot, rapamycin 200 nM, 12 hours, PBA 10 mM
# [7] = 8 hours in the presence of 26S proteosome inhibitor epoxomicin
compound,measurement,setting,value
C[C@@H]1C[C@@H]([C@H](O)CC2CC(=O)NC(=O)C2)C(=O)[C@@H](C)C1 [Cyclohexamide],PERK phosphorylation,TSC1−/− MEFs; [5],decrease
same,PERK phosphorylation,TSC2−/− MEFs; [6],decrease
"O=C(O)CCCc1ccccc1 [PBA, 4-phenyl butyric acid]",c-Jun Amino Terminal Kinase-1 (JNK-1) activity,[1],suppressed
same,period until IRS-1 protein levels become undetectable after cycloheximide addition,IRS-1 [2],up to 4 hours
same,rescue from ER stress inducer sensitivity,"TSC2−/− cells; TSC2-deficient cells, treatment with chemical chaperone",at least partially rescued
same,Glucose starvation induced PARP and caspase-3 cleavage,"TSC2−/− cells; TSC-2−/− cells, 4-PBA treatment",blocked
same,PERK phosphorylation,TSC1−/− MEFs; [5],block
same,S6 phosphorylation,TSC1−/− MEFs; [5],significant decrease
same,s6K1 phosphorylation,TSC1−/− MEFs; [5],significant decrease
same,eIF2α phosphorylation,"TSC1−/− MEFs; TSC1-deficient cells, PBA 10 mM",substantial decrease
same,XBP-1 mRNA splicing after glucose starvation,TSC1−/− MEFs; TSC-1 deficient cells glucose starved in the presence of 4-PBA,significantly reduced
same,glucose starvation induced CHOP transcription,"TSC1−/− MEFs; TSC-1 deficient cells, 4-PBA treatment",significantly reduced
same,insulin induced IRS-1 tyrosine phosphorylation,TSC-1−/− cells; 100 nM insulin 5 minutes,improved
same,insulin induced IRS-2 tyrosine phosphorylation,TSC-1−/− cells; 100 nM insulin 5 minutes,improved
same,insulin induced Akt phosphorylation,TSC-1−/− cells; 100 nM insulin 15 minutes,improved
same,protein levels of IRS-1,TSC-1−/− cells,increase
same,insulin induced IRS-1 tyrosine phosphorylation,TSC-2−/− cells; 100 nM insulin 5 minutes,improved
same,insulin induced IRS-2 tyrosine phosphorylation,TSC-2−/− cells; 100 nM insulin 5 minutes,improved
same,insulin induced Akt phosphorylation,TSC-2−/− cells; 100 nM insulin 15 minutes,improved
same,protein levels of IRS-1,TSC-2−/− cells,increase
same,PERK phosphorylation,TSC2−/− MEFs; [6],blocked
same,S6 phosphorylation,TSC2−/− MEFs; [6],significant decrease
same,eIF2α phosphorylation,"TSC2−/− MEFs; TSC2-deficient cells, PBA 10 mM",blocked
same,XBP-1 mRNA splicing after glucose starvation,TSC2−/− MEFs; TSC-2 deficient cells glucose starved in the presence of 4-PBA,significantly reduced
same,Glucose starvation induced PARP and caspase-3 cleavage,"TSC1−/− cells; TSC-1−/− cells, 4-PBA treatment",blocked
same,"ER stress in animals (phosphorylation of PERK, activation of JNK, phosphorylation of IRE-1α)",ER stress,regulate ER stress
"C[C@H](CCC(=O)NCCS(=O)(=O)O)[C@H]1CC[C@H]2[C@@H]3[C@@H](O)C[C@@H]4C[C@H](O)CC[C@]4(C)[C@H]3CC[C@]12C [TUDCA, tauroursodeoxycholic acid]","ER stress in animals (phosphorylation of PERK, activation of JNK, phosphorylation of IRE-1α)",ER stress,regulate ER stress
C/C=C(/C)C(=O)O[C@H]1C(C)=C2[C@H]([C@@H]1OC(=O)CCCCCCC)[C@@](C)(OC(C)=O)C[C@H](OC(=O)CCC)[C@@]1(O)[C@H]2OC(=O)[C@@]1(C)O [thapsigargin],ubiquitination of IRS-1,IRS-1 [3]; [7],severe ubiquitination
same,ubiquitination of IRS-1,IRS-1 [3]; eight hour stimulation in the presence of MG132,ubiquitination
same,degradation of IRS-1,IRS-1 [3],degradation of IRS-1
same,apoptosis,"TSC2−/− cells; TSC2−/− cells, thapsigargin, after 6 hours",massive apoptosis
same,PARP and caspase-3 cleavage,"TSC2−/− cells; TSC-2−/− cells, induction of ER stress",increased
same,splicing of XBP-1 mRNA (UPR activation),TSC1−/− MEFs; TSC1-deficient cells,increased
same,apoptosis,Wild-type control cells,no apoptosis
same,splicing of XBP-1 mRNA (UPR activation),TSC2−/− MEFs; TSC2-deficient cells,increased
same,cleaved caspase-3 or PARP cleavage,"TSC1−/− cells; TSC1−/− cells after thapsigargin treatment, compared with controls",significantly induced
same,apoptosis,"TSC1−/− cells; TSC1−/− cells, thapsigargin 10 nM, after 6 hours",massive apoptosis
same,tunnel positivity in liver hemangiomas,[4]; no liver hemangiomas in vehicle treated group,Increased
same,tunnel assay positive cells in kidney adenomas,"[4]; ~1 year old TSC-2+/− mice, after 7 days",clear up-regulation
same,UPR activation,wild type control cells,not activated
tunicamycin,ubiquitination of IRS-1,IRS-1 [3]; [7],severe ubiquitination
same,degradation of IRS-1,IRS-1 [3],degradation of IRS-1
same,splicing of XBP-1 mRNA (UPR activation),TSC1−/− MEFs; TSC1-deficient cells,increased
same,splicing of XBP-1 mRNA (UPR activation),TSC2−/− MEFs; TSC2-deficient cells,increased
same,UPR activation,wild type control cells,not activated

# Source: US20100022495A1, “MODULATING ENDOPLASMIC RETICULUM STRESS IN THE TREATMENT OF TUBEROUS SCLEROSIS” (PRESIDENT AND FELLOWS OF HARVARD COLLEGE, priority 2005, published 2010)
